Test system: MSC-EVs
Assay: Dye labelling of MSC-EV preparations analysed by imaging flow cytometry (IFCM)
Description: MSC-EVs were prepared form human platelet lysate containing MSC-conditioned media by polyethylene glycol 6000 precipitation followed by ultracentrifugation, as described previously (Borger, V. et al, 2020, Scaled Isolation of Mesenchymal Stem/Stromal Cell-Derived Extracellular Vesicles. Curr Protoc Stem Cell Biol 55, e128; Kordelas et al., 2014, MSC-derived exosomes: a novel tool to treat therapy-refractory graft-versus-host disease. Leukemia 28, 970-973; Ludwig et al., 2018, Precipitation with polyethylene glycol followed by washing and pelleting by ultracentrifugation enriches extracellular vesicles from tissue culture supernatants in small and large scales. J Extracell Vesicles 7, 1528109). Conditioned media were harvested every 48 h. Obtained MSC-EV preparations were diluted in NaCl-HEPES buffer (Sigma-Aldrich, Taufkirchen, Germany) such that 1 mL of final samples contained the preparation yield of the conditioned media of approximately 4.0×10^7 cells.
The staining with CFSE (Thermo Fisher Scientific, Darmstadt, Germany) was based on the manufacturer's protocol. Slight modifications were required to reduce the signal from unbound CFSE. Briefly, the CFSE stock solution was diluted to a working solution of 10 μM CFSE. The solution was centrifuged three times for 10 min at 17,000 × g. Subsequently, 25 μL of MSC-EV preparations, corresponding to the amount of EVs derived from 1×10^6 MSCs, were incubated with the centrifuged CFSE solution for 20 min at 37° C. The sample was diluted 1:20 to a final volume of 1 mL prior to analysis.
The staining of MSC-EV preparations with Calcein AM followed the manufacturer's instructions. Briefly, 25 μL of MSC-EV preparations were incubated with 25 μL of a 20 μM solution of Calcein AM (Thermo Fisher Scientific) for 40 min at 37° C. The sample was diluted 1:20 to a final volume of 1 mL to reduce background noise, avoiding the requirement of a washing step.
The staining of MSC-EV preparations with BODIPY-TR-Ceramide followed the manufacturer's instructions. Briefly, 25 μL of the MSC-EV preparation, corresponding to EVs purified from […], were incubated with 25 μL of a 20 μM solution of BODIPY TR Ceramide (Thermo Fisher Scientific) for 20 min at 37° C. 450 μL of 0.9% NaCl with 10mM HEPES (0.9% NaCl, Melsungen, B. Braun; HEPES, Thermo Fisher Scientific) buffer was added and the EVs were washed by using a Centrifugal Concentrator (Vivaspin 500; Sartorius, Gottingen, Germany). The retentate was adjusted to 500 μL prior to analysis.
The staining of MSC-EV preparations with PKH67 followed the manufacturer's instructions for labeling EVs (Thermo Fisher Scientific). Briefly, using 200 μL of given MSC-EV preparations, corresponding to EVs purified from 8×10^6 cells, the solution was adjusted with Diluent C to a final volume of 1 mL. […]

Calcein AM [reference compound]
labelling of sEVs in MSC-EV preparations (conclusion) (IFCM, with anti-CD9, anti-CD63, anti-CD81 counterstaining where done): do not Label | labelled objects in MSC-EV preparations (FIG. 8) (dye + MSC-EVs): failed to label any detectable objects

— patent US20240093034A1, “FLUORESCENT DYES” (EXOPHARM LIMITED, priority 2020, published 2024)
